# Tests used:
# [1] = system: BRCA2 knockout tumor cells; test: Xenograft model, BRCA2 knockout vs isogenic wild type tumor cells; type: in vivo; details: BRCA2 knockout tumor cells in a xenograft model, compared with isogenic wild type control cells
# [2] = system: multiple cancer cell lines; test: Alamar Blue cell viability assay, overall statement on cancer cell lines; type: cell-based
# Procedure: The effect of Compound I on cell viability was assessed by Alamar Blue assay of metabolic activity in various cancer cell lines.
# [3] = system: metastatic, recurrent, locally, advanced, or unresectable solid malignancy; test: Pharmacokinetic and dose escalation study in patients with solid malignancy (Example 6); type: in vivo, human
# Procedure: In pharmacokinetic and dose escalation studies, wadult patients with metastatic, recurrent, locally, advanced, or unresectable solid malignancy (patients with histologically and/or cytologically confirmed solid malignancy), who received prior anti-cancer treatment(s) until disease progression, at 10 different dose levels of Compound I were evaluated. Groups 1-7 were administered Compound I intravenously on days 1 and 8 of a 4-week cycle at 50, 100, 150, 200, 250, 325, and 475 mg/m^2 (solid Compound I reconstituted with 5% glucose in sterile water or similar biologically acceptable IV fluid), respectively. Groups 8-10 were administered intravenously on days 1, 8, and 15 of a 4-week cycle at 325, 475, and 650 mg/m^2, respectively. Each patient received each dose over 1 hour by IV infusion on days described above.
# 18 Patients were diagnosed with metastatic breast cancer.
# 12 Patients harbored BRCA1 or BRCA2 mutation. From the same group of 12 patients harboring BRCA1 or BRCA2 mutation, 8 patients had breast cancer (FIG. 2). Of the 8 patients, 6 patients harbored BRCA2 mutation and had breast cancer (FIG. 3). In FIGS. 1-3, each bar represents an individual in a treatment Group as indicated by the Group number corresponding to the treatment Groups.
# [4] = system: normal cells; test: Alamar Blue cell viability assay, overall statement on normal cells; type: cell-based
# [5] = system: BRCA1/2 deficient cells; test: Toxicity against BRCA1/2 deficient cell lines; type: cell-based; details: cell lines of different genetic backgrounds (colon, breast and ovary), mouse and human
smiles,measurement,setting,value
"Cc1cnc(CNC(=O)c2c(=O)c3ccc(N4CCCN(C)CC4)nc3n3c2sc2ccccc23)cn1 [Compound I, 2-(4-Methyl-[1,4]diazepan-1-yl)-5-oxo-5H-7-thia-1,11b-diaza-benzo[c]fluorene-6-carboxylic acid (5-methyl-pyrazin-2-ylmethyl)-amide]",therapeutic index of activity,[1],wide therapeutic index
same,antiproliferative activity,[2],antiproliferation activity
same,response to Compound I treatment,"[3]; one patient of Group 10 (650 mg/m^2 IV, days 1, 8, 15 of 4-week cycle) with PALB2 mutation and BRCA2 mutation",partial response (PR)
same,response to Compound I treatment,"[3]; patients with BRCA2 mutation, dose greater than or equal to 150 mg/m^2, IV",tumor shrinkage
same,activity in normal cells compared with cancer cell lines,[4],significantly less active
same,toxicity against BRCA1/2 deficient cells,[5],specific toxicity

# From patent US20220062294A1, “PHARMACEUTICAL COMPOSITIONS OF TETRACYCLIC QUINOLONE ANALOGS AND THEIR SALTS” (Senhwa Biosciences, Inc., priority 2020, published 2022)
